Laboratory results from ChEMBL document CHEMBL3994622, “Design and synthesis of new RAF kinase-inhibiting antiproliferative quinoline derivatives. Part 2: Diarylurea derivatives” (Eur J Med Chem, 2017).

Experiments:
Format in all cases: functional
A549 = assay: Growth inhibition of human A549/ATCC cells assessed as cell growth at 0.003 uM incubated for 48 hrs by sulforhodamine B assay relative to control; details: A549, 48 h, read-out: Activity
U-251 = assay: Growth inhibition of human U251 cells assessed as cell growth at 0.003 uM incubated for 48 hrs by sulforhodamine B assay relative to control; details: U-251, 48 h, read-out: Activity
OVCAR-4 [1] = assay: Growth inhibition of human OVCAR4 cells assessed as cell growth at 0.003 uM incubated for 48 hrs by sulforhodamine B assay relative to control; details: OVCAR-4, 48 h, read-out: Activity
SK-OV-3 [2] = assay: Growth inhibition of human SKOV3 cells assessed as cell growth at 0.003 uM incubated for 48 hrs by sulforhodamine B assay relative to control; details: SK-OV-3, 48 h, read-out: Activity
CCRF-CEM = assay: Growth inhibition of human CCRF-CEM cells assessed as cell growth at 0.03 uM incubated for 48 hrs by sulforhodamine B assay relative to control; details: read-out: Activity
UACC-62 = assay: Growth inhibition of human UACC62 cells assessed as cell growth at 0.03 uM incubated for 48 hrs by sulforhodamine B assay relative to control; details: UACC-62, 48 h, read-out: Activity
OVCAR-4 [3] = assay: Growth inhibition of human OVCAR4 cells assessed as cell growth at 0.03 uM incubated for 48 hrs by sulforhodamine B assay relative to control; details: OVCAR-4, 48 h, read-out: Activity
SN12C [4] = assay: Growth inhibition of human SN12C cells assessed as cell growth at 0.03 uM incubated for 48 hrs by sulforhodamine B assay relative to control; details: read-out: Activity
HOP-92 [5] = assay: Growth inhibition of human HOP92 cells assessed as cell growth at 0.3 uM incubated for 48 hrs by sulforhodamine B assay relative to control; details: HOP-92, 48 h, read-out: Activity
NCI-H522 = assay: Growth inhibition of human NCI-H522 cells assessed as cell growth at 0.3 uM incubated for 48 hrs by sulforhodamine B assay relative to control; details: NCI-H522, 48 h, read-out: Activity
SK-OV-3 [6] = assay: Growth inhibition of human SKOV3 cells assessed as cell growth at 0.3 uM incubated for 48 hrs by sulforhodamine B assay relative to control; details: SK-OV-3, 48 h, read-out: Activity
CAKI-1 [7] = assay: Growth inhibition of human Caki1 cells assessed as cell growth at 0.3 uM incubated for 48 hrs by sulforhodamine B assay relative to control; details: CAKI-1, 48 h, read-out: Activity
TK-10 [8] = assay: Growth inhibition of human TK10 cells assessed as cell growth at 0.3 uM incubated for 48 hrs by sulforhodamine B assay relative to control; details: TK-10, 48 h, read-out: Activity
PC-3 = assay: Growth inhibition of human PC3 cells assessed as cell growth at 0.3 uM incubated for 48 hrs by sulforhodamine B assay relative to control; details: PC-3, 48 h, read-out: Activity
NCI-H23 = assay: Growth inhibition of human NCI-H23 cells assessed as cell growth at 3 uM incubated for 48 hrs by sulforhodamine B assay relative to control; details: NCI-H23, 48 h, read-out: Activity
UO-31 = assay: Growth inhibition of human UO31 cells assessed as cell growth at 3 uM incubated for 48 hrs by sulforhodamine B assay relative to control; details: UO-31, 48 h, read-out: Activity
MOLT-4 = assay: Growth inhibition of human MOLT4 cells assessed as cell growth at 0.01 uM incubated for 48 hrs by sulforhodamine B assay relative to control; details: MOLT-4, 48 h, read-out: Activity
HCT-116 = assay: Growth inhibition of human HCT116 cells assessed as cell growth at 0.01 uM incubated for 48 hrs by sulforhodamine B assay relative to control; details: HCT-116, 48 h, read-out: Activity
KM12 [9] = assay: Growth inhibition of human KM12 cells assessed as cell growth at 0.01 uM incubated for 48 hrs by sulforhodamine B assay relative to control; details: KM12, 48 h, read-out: Activity
786-0 = assay: Growth inhibition of human 786-0 cells assessed as cell growth at 0.01 uM incubated for 48 hrs by sulforhodamine B assay relative to control; details: 786-0, 48 h, read-out: Activity
ACHN = assay: Growth inhibition of human ACHN cells assessed as cell growth at 0.01 uM incubated for 48 hrs by sulforhodamine B assay relative to control; details: read-out: Activity
CAKI-1 [10] = assay: Growth inhibition of human Caki1 cells assessed as cell growth at 0.01 uM incubated for 48 hrs by sulforhodamine B assay relative to control; details: CAKI-1, 48 h, read-out: Activity
HL-60(TB) = assay: Growth inhibition of human HL-60(TB) cells assessed as cell growth at 0.1 uM incubated for 48 hrs by sulforhodamine B assay relative to control; details: HL-60, 48 h, read-out: Activity
RPMI-8226 = assay: Growth inhibition of human RPMI8226 cells assessed as cell growth at 0.1 uM incubated for 48 hrs by sulforhodamine B assay relative to control; details: RPMI-8226, 48 h, read-out: Activity
OVCAR-8 = assay: Growth inhibition of human OVCAR8 cells assessed as cell growth at 0.1 uM incubated for 48 hrs by sulforhodamine B assay relative to control; details: OVCAR-8, 48 h, read-out: Activity
MCF7 = assay: Growth inhibition of human MCF7 cells assessed as cell growth at 0.1 uM incubated for 48 hrs by sulforhodamine B assay relative to control; details: MCF7, 48 h, read-out: Activity
SN12C [11] = assay: Growth inhibition of human SN12C cells assessed as cell growth at 1 uM incubated for 48 hrs by sulforhodamine B assay relative to control; details: read-out: Activity
HOP-92 [12] = assay: Growth inhibition of human HOP92 cells assessed as cell growth at 10 uM incubated for 48 hrs by sulforhodamine B assay relative to control; details: HOP-92, 48 h, read-out: Activity
SF-295 = assay: Growth inhibition of human SF295 cells assessed as cell growth at 10 uM incubated for 48 hrs by sulforhodamine B assay relative to control; details: SF-295, 48 h, read-out: Activity
M14 = assay: Growth inhibition of human M14 cells assessed as cell growth at 10 uM incubated for 48 hrs by sulforhodamine B assay relative to control; details: M14, 48 h, read-out: Activity
TK-10 [13] = assay: (§1) Growth inhibition of human TK10 cells assessed as cell growth at 10 uM incubated for 48 hrs by sulforhodamine B assay relative to control; details: TK-10, 48 h, read-out: Activity
EKVX = assay: Growth inhibition of human EKVX cells assessed as cell growth at 100 uM incubated for 48 hrs by sulforhodamine B assay relative to control; details: read-out: Activity
HOP-62 = assay: Growth inhibition of human HOP62 cells assessed as cell growth at 100 uM incubated for 48 hrs by sulforhodamine B assay relative to control; details: HOP-62, 48 h, read-out: Activity
KM12 [14] = assay: Growth inhibition of human KM12 cells assessed as cell growth at 100 uM incubated for 48 hrs by sulforhodamine B assay relative to control; details: KM12, 48 h, read-out: Activity
CAKI-1 [15] = assay: Growth inhibition of human Caki1 cells assessed as cell growth at 100 uM incubated for 48 hrs by sulforhodamine B assay relative to control; details: CAKI-1, 48 h, read-out: Activity
TK-10 [16] = assay: as §1; details: TK-10, 48 h, read-out: Activity; remark: listed apart in the source

| SMILES | growth at 0.003 µM (A549) [%] | growth at 0.003 µM (U-251) [%] | growth at 0.003 µM (OVCAR-4 [1]) [%] | growth at 0.003 µM (SK-OV-3 [2]) [%] | growth at 0.03 µM (CCRF-CEM) [%] | growth at 0.03 µM (UACC-62) [%] | growth at 0.03 µM (OVCAR-4 [3]) [%] | growth at 0.03 µM (SN12C [4]) [%] | growth at 0.3 µM (HOP-92 [5]) [%] | growth at 0.3 µM (NCI-H522) [%] | growth at 0.3 µM (SK-OV-3 [6]) [%] | growth at 0.3 µM (CAKI-1 [7]) [%] | growth at 0.3 µM (TK-10 [8]) [%] | growth at 0.3 µM (PC-3) [%] | growth at 3 µM (NCI-H23) [%] | growth at 3 µM (UO-31) [%] | growth at 0.01 µM (MOLT-4) [%] | growth at 0.01 µM (HCT-116) [%] | growth at 0.01 µM (KM12 [9]) [%] | growth at 0.01 µM (786-0) [%] | other results |
| --- | --- | --- | --- | --- | --- | --- | --- | --- | --- | --- | --- | --- | --- | --- | --- | --- | --- | --- | --- | --- | --- |
| COc1cc2cc(Oc3ccc(NC(=O)Nc4ccc(Cl)c(C(F)(F)F)c4)cc3)c(C)nc2cc1OC | 94 | 97 | 93 | 101 | 103 | 92 | 96 | 95 | 84 | 85 | 103 | 87 | 100 | 83 | 5 | -17 | – | – | – | – | – |
| COc1cc2cc(Oc3ccc(NC(=O)Nc4ccc(Cl)c(Cl)c4)cc3)c(C)nc2cc1OC | – | – | – | – | – | – | – | – | – | – | – | – | – | – | – | – | 108 | 89 | 103 | 83 | growth at 0.01 µM (ACHN): 101%; growth at 0.01 µM (CAKI-1 [10]): 88%; growth at 0.1 µM (HL-60(TB)): 109%; growth at 0.1 µM (RPMI-8226): 101%; growth at 0.1 µM (OVCAR-8): 100%; growth at 0.1 µM (MCF7): 92%; growth at 1 µM (SN12C [11]): 85%; growth at 10 µM (HOP-92 [12]): -41%; growth at 10 µM (SF-295): -22%; growth at 10 µM (M14): 2%; growth at 10 µM (TK-10 [13]): -4%; growth at 100 µM (EKVX): -36%; growth at 100 µM (HOP-62): -100%; growth at 100 µM (KM12 [14]): -58%; growth at 100 µM (CAKI-1 [15]): -64% |
| COc1cc2cc(Oc3ccc(NC(=O)Nc4cc(C(F)(F)F)cc(C(F)(F)F)c4)cc3)c(C)nc2cc1OC | – | – | – | – | – | – | – | – | – | – | – | – | – | – | – | – | 104 | 97 | 98 | 89 | growth at 10 µM (TK-10 [16]): 13.2%; growth at 0.01 µM (ACHN): 94%; growth at 0.01 µM (CAKI-1 [10]): 88%; growth at 0.1 µM (HL-60(TB)): 84%; growth at 0.1 µM (RPMI-8226): 93%; growth at 0.1 µM (OVCAR-8): 110%; growth at 0.1 µM (MCF7): 92%; growth at 1 µM (SN12C [11]): 35%; growth at 10 µM (HOP-92 [12]): -38%; growth at 10 µM (SF-295): -76%; growth at 10 µM (M14): -59%; growth at 10 µM (TK-10 [13]): -3%; growth at 100 µM (EKVX): -94%; growth at 100 µM (HOP-62): -92%; growth at 100 µM (KM12 [14]): -74%; growth at 100 µM (CAKI-1 [15]): -60% |
| Cc1nc2cc(O)c(O)cc2cc1Oc1ccc(NC(=O)Nc2ccc(Cl)c(Cl)c2)cc1 | 100 | 95 | 97 | 104 | 95 | 97 | 98 | 102 | 77 | 93 | 108 | 95 | 98 | 97 | 87 | 100 | – | – | – | – | growth at 10 µM (TK-10 [16]): 85.3% |
